Key:
[1] = system: NK cells; assay: NK cell-mediated cytotoxicity assay, splenocytes co-cultured with YAC-1 cells; type: in vivo, BALB/c mice; conditions: CY-treated group (80 mg/kg IP); effector:target 50:1
Protocol: (§1) In the present invention, 40 mice were randomly divided into 8 groups (n=5 per group) and variously treated according to Table 1.
(§2) Cyclophosphamide (CY) was used to induce immunosuppressive models by intraperitoneal (IP) injection at a dose of 80 mg/kg body weight (BW). […] In addition, ginseng was used with a commercially available product, and mice were sacrificed 24 hours after the last treatment of samples in Table 1.

[2] = system: mice immunosuppressed by administering cyclophosphamide (CY); assay: Spleen size and spleen index in cyclophosphamide (CY)-immunosuppressed mice; type: in vivo, BALB/c mice; conditions: CY (80 mg/kg IP) mice, CY group compared to normal group, LEV 40 mg/kg, red ginseng 100 mg/kg, GBPs 50, 100, 250, 500 mg/kg BW orally; for spleen size: FIG. 1; for spleen index: FIG. 2
Protocol: Six-week-old male BALB/c mice (21-23 g) were purchased from the Central Lab, Animal Inc. (Korea) and housed under standard conditions with temperature maintained at 22±2° C. and a 12-h/12-h dark/light cycle.
as §1, §2
The spleen was dissected and weighed. The spleen index was calculated according to Formula below:
Spleen index (mg/g)=spleen weight/body weight of mouse [Formula]

[3] = system: immune-related genes (IL-1β, IL-2, IL-4, IL-6, TNF-α, IFN-γ, TLR-4, COX-2); set-up: species or system BALB/c mice; conditions: mouse, in vivo
Protocol: as §1, §2

[4] = system: splenic lymphocytes; assay: Splenic lymphocyte proliferation (EZ-Cytox) of splenocytes from treated mice, stimulated with Con A or LPS; type: in vivo, BALB/c mice; conditions: CY-treated group (80 mg/kg IP) compared to the normal group
Protocol: as §1, §2

Row | Structure (SMILES) | activity of NK cells [1] [%] | spleen size [2] | spleen index [2] | mRNA expression levels of immune-related genes IL-2, IL-4, IL-6, TNF-α, IFN-γ, TLR-4 and COX-2 [3] | Con A-stimulated cell proliferation, reduction ([4]; Con A 5 μg/ml) [%] | LPS-stimulated cell proliferation, reduction ([4]; LPS 10 μg/ml) [%]
1 | O=P1(N(CCCl)CCCl)NCCCO1 (centres unmarked) [CY, Cyclophosphamide] | 42.9 | decreases in both spleen size and spleen indices | decreases in both spleen size and spleen indices | lower than those of the normal group | 48.1 | 57.1
2 | c1ccc([C@H]2CN3CCSC3=N2)cc1 [LEV, Levamisole] | – | increased spleen size and indices | increased spleen size and indices | – | – | –
